Experimental findings from ChEMBL document CHEMBL1130575, “ATP analogs with non-transferable groups in the position as inhibitors of glycerol kinase” (Bioorg Med Chem Lett, 1997) are described below.

Data set [1] has as its target T1, Glycerol kinase (Homo sapiens, UniProt P32189).
T1 sequence (P32189 whole entry): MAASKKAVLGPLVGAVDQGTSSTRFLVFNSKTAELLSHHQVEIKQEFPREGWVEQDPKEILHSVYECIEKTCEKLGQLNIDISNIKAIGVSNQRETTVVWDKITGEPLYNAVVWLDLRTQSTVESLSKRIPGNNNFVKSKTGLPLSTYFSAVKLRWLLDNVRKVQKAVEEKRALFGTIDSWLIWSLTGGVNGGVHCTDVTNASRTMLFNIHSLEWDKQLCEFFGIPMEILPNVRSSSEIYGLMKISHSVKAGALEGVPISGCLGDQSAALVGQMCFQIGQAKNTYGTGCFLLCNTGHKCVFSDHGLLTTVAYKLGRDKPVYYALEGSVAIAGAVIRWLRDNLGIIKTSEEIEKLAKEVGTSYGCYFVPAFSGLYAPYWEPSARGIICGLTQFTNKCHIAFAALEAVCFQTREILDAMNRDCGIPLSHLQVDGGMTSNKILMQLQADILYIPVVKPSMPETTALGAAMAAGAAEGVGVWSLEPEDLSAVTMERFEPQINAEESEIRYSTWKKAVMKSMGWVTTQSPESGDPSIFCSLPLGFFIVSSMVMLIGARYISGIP
The data set can be described thus: Tested for its binding affinity against glycerol kinase (ATP competitive inhibition).

Data set [2] is described as follows: pKa value was evaluated. It counts as physicochemical.

As to `Nc1ncnc2c1ncn2[C@@H]1O[C@H](COP(=O)(O)OP(=O)(O)OP(=O)(O)O)[C@@H](O)[C@H]1O` [ADENOSINE TRIPHOSPHATE], the inhibition constant Ki in data set [1] was found to be 200 µM. In data set [2], this compound came in with a pKa of 7.1. For `Nc1ncnc2c1ncn2[C@@H]1O[C@H](COP(=O)(O)OP(=O)(O)C(F)(F)P(=O)(O)O)[C@@H](O)[C@H]1O` the same measures were 80 µM and 6.7.

Turning to `Nc1ncnc2c1ncn2[C@@H]1O[C@H](COP(=O)(O)OP(=O)(O)CP(=O)(O)O)[C@@H](O)[C@H]1O` [PHOSPHOMETHYLPHOSPHONIC ACID ADENYLATE ESTER], in data set [1], the affinity, expressed as Ki, was 300 µM. Also, the pKa in data set [2] was 8.4. In the case of `Nc1ncnc2c1ncn2C1O[C@H](COP(=O)(O)OP(=O)(O)C[As](=O)(O)O)[C@@H](O)[C@H]1O` (some centres undefined), in data set [1], the affinity corresponds to a Ki of 2900 µM. The compound also showed a pKa in data set [2] of 9. Regarding `Nc1ncnc2c1ncn2[C@@H]1O[C@H](COP(=O)(O)OP(=O)(O)NP(=O)(O)O)[C@@H](O)[C@H]1O`, in data set [1], affinity was put at a Ki of 900 µM.

The term Ki denotes the equilibrium dissociation constant of an inhibitor or competing ligand from its target. Broadly, the pKa is the pH at which an ionisable group is half protonated. A higher pKa goes with a weaker acid or stronger base.
